# “And” between values parts separate entries of the source, which are not always exact repeats. Equal entries are not always repeated.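 Cells were grown in 96-well plates and exposed to each compound for 48 hours at five concentrations; endpoints were interpolated linearly between bracketing concentrations, or set to the highest concentration if not reached. Abbreviation: GI50, concentration required for 50% inhibition of growth. TGI marks complete inhibition of growth.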
# Columns and labels:
# Test in all cases: growth of human tumour cells (NCI), 48 h
# CCRF-CEM leukemia = tested on: CCRF-CEM leukemia
# DU-145 prostate = tested on: DU-145 prostate
# EKVX NSCLC = tested on: EKVX NSCLC
# HCT-116 colon = tested on: HCT-116 colon
# HS 578T breast = tested on: HS 578T breast
# HT29 colon = tested on: HT29 colon
# NCI-H460 lung = tested on: NCI-H460 lung
# NCI-H522 lung = tested on: NCI-H522 lung
# SF-268 CNS = tested on: SF-268 CNS
# SF-295 CNS = tested on: SF-295 CNS
SMILES,GI50 (CCRF-CEM leukemia),TGI (CCRF-CEM leukemia),GI50 (DU-145 prostate),TGI (DU-145 prostate),GI50 (EKVX NSCLC),TGI (EKVX NSCLC),GI50 (HCT-116 colon),TGI (HCT-116 colon),GI50 (HS 578T breast),TGI (HS 578T breast),GI50 (HT29 colon),TGI (HT29 colon),GI50 (NCI-H460 lung),TGI (NCI-H460 lung),GI50 (NCI-H522 lung),TGI (NCI-H522 lung),GI50 (SF-268 CNS),TGI (SF-268 CNS),GI50 (SF-295 CNS),TGI (SF-295 CNS)
CCOc1cccc(/C=N/NC(=O)Cc2ccc(Nc3ccnc(C(F)(F)F)c3)cc2)c1O,0.328 µM,2.76 µM,2.06 µM,> 100 µM,3.87 µM,> 100 µM,1.2 µM,19.3 µM,5.75 µM,> 100 µM,8 µM,78.6 µM,1.71 µM,13.5 µM,4.76 µM,33.2 µM,1.27 µM,32.4 µM,3.81 µM,43.2 µM
COc1ccc2c(c1)c(-c1cc(-c3cn(C)c4ccc(OC)cc34)[nH]n1)cn2C,> 100 µM,> 100 µM,> 100 µM,> 100 µM,> 100 µM,> 100 µM,> 100 µM,> 100 µM,> 100 µM,> 100 µM,> 100 µM,> 100 µM,> 100 µM,> 100 µM,> 100 µM,> 100 µM,> 100 µM,> 100 µM,> 100 µM,> 100 µM
Cc1nc2cc(Nc3nc(Nc4ccc(F)cc4)nc(-c4ccc(Cl)cc4)n3)ccc2n1Cc1ccccc1,3.35 µM,> 100 µM,23.4 µM,> 100 µM,,,5.04 µM,> 100 µM,12.2 µM,> 100 µM,4.63 µM,> 100 µM,6.42 µM,> 100 µM,10.8 µM,68.2 µM,10.1 µM,97.3 µM,4.81 µM,58 µM
Cc1ccc2c(C(C[N+](=O)[O-])c3ccco3)c(-c3ccccc3)[nH]c2c1 (configuration not stated),34.1 µM,> 100 µM,74.4 µM,> 100 µM,55 µM,> 100 µM,19.8 µM,> 100 µM,17.5 µM,> 100 µM,> 100 µM,> 100 µM,26.7 µM,> 100 µM,3.92 µM,> 100 µM,> 100 µM,> 100 µM,21.9 µM,> 100 µM
CC(=O)c1c(Nc2ccc(F)c(F)c2F)[nH]c2c(F)cc(F)cc2c1=O,0.368 µM,> 100 µM,0.403 µM,> 100 µM,0.303 µM,> 40.4 µM,0.291 µM,5.57 µM,0.293 µM,8.69 µM,0.356 µM,17.5 µM,0.331 µM,11.2 µM,0.285 µM,16.6 µM,0.341 µM,43.1 µM,0.308 µM,1.5 µM
NCCNc1nc2ccccc2c2c(=O)c3cc(F)cc(Cl)c3sc12,1.31 µM,2.82 µM,1.73 µM,3.22 µM,1.6 µM,3.13 µM,0.694 µM,1.99 µM,1.63 µM,3.7 µM,1.56 µM,3.3 µM,1.7 µM,3.25 µM,1.64 µM,3.43 µM,1.57 µM,3.29 µM,1.73 µM,3.18 µM
Nc1ccc2c(SCC(=O)Nc3ccccc3-c3ccccc3NC(=O)CSc3c4ccccc4nc4cc(N)ccc34)c3ccccc3nc2c1,,> 100 µM,,> 58.7 µM,,> 100 µM,,64.5 µM,,> 90 µM,,> 100 µM,,97.8 µM,,31.8 µM,,93.3 µM,,98 µM
CC[C@H](C)[C@H](NC(=O)N[C@@H](C)c1ccccc1)C(=O)N(C)[C@H](C[C@@H](OC(C)=O)c1nc(C(=O)N[C@@H](Cc2ccccc2)C[C@H](C)C(=O)OC)cs1)C(C)C,23.9 µM,> 100 µM,32.8 µM,> 100 µM,37.5 µM,> 100 µM,21.8 µM,68.5 µM,15.9 µM,56.7 µM,28.3 µM,> 100 µM,26.6 µM,95.5 µM,13 µM,42.1 µM,29.7 µM,> 100 µM,25.6 µM,> 100 µM
CC(=O)OC1Oc2cc(C)c(C)cc2-c2oc(=O)c(-c3ccccc3)cc21 (configuration not stated),0.364 µM,> 100 µM,0.297 µM,1.2 µM,0.685 µM,> 100 µM,0.455 µM,46.9 µM,0.244 µM,1.42 µM,0.323 µM,4.39 µM,0.338 µM,14.2 µM,0.177 µM,4.81 µM,0.58 µM,> 50.6 µM,0.448 µM,> 34.9 µM
CC(C)c1ccc2c(c1)c(SC(C)(C)C)c(CC(C)(C)C(=O)O)n2Cc1ccc(Cl)cc1,4.27 µM,29.1 µM,6.76 µM,19 µM,4.42 µM,13 µM,9.1 µM,25.6 µM,11.4 µM,29.4 µM,5.75 µM,16.9 µM,4.23 µM,16.2 µM,6.07 µM,18.1 µM,8.79 µM,23.5 µM,6.69 µM,22.2 µM
CC(C)(C)OC(=O)n1c(Cl)c(C(=O)N=C=S)c2ccccc21,35.5 µM,> 100 µM,36 µM,> 100 µM,29.6 µM,98.7 µM,55.7 µM,> 100 µM,25.5 µM,68.2 µM,> 100 µM,> 100 µM,39.6 µM,> 100 µM,18.1 µM,37.6 µM,37.5 µM,> 100 µM,33 µM,> 100 µM
COc1ccc(-c2conc2-c2ccccc2)cc1,0.292 µM,> 100 µM,0.416 µM,,2.64 µM,> 100 µM,0.318 µM,> 100 µM,0.267 µM,,0.112 µM,> 100 µM,0.324 µM,4.37 µM,0.17 µM,15.9 µM,1.67 µM,> 100 µM,0.317 µM,> 100 µM
COc1ccc(C2NC(=S)NC3=C2COc2ccc(F)cc23)cc1OC (configuration not stated),93.5 µM,> 100 µM,33.2 µM,> 100 µM,29.8 µM,> 100 µM,16.6 µM,57.1 µM,7.75 µM,38.1 µM,,,24.1 µM,> 100 µM,49.2 µM,> 100 µM,19 µM,> 100 µM,20.1 µM,70.3 µM
COc1ccc(-c2nn(-c3cccc(Cl)c3)cc2/C=C2\C(=N)N(c3ccccc3)N=C2N)cc1,0.655 µM,> 58.7 µM,1.37 µM,> 47.9 µM,1.5 µM,60.5 µM,1.59 µM,17.2 µM,19.6 µM,> 100 µM,2.57 µM,24.5 µM,0.445 µM,7.4 µM,0.916 µM,23 µM,4.52 µM,> 100 µM,0.271 µM,2.83 µM
COc1cc(/C=C2\C(=O)Nc3ccc(Br)cc32)cc(OC)c1OC,4.82 µM,> 100 µM,18.7 µM,> 100 µM,14.3 µM,> 100 µM,4.86 µM,> 100 µM,2.94 µM,> 78.7 µM,3.82 µM,> 100 µM,8.76 µM,> 100 µM,3.29 µM,> 50.9 µM,36.9 µM,> 100 µM,12 µM,68.9 µM
COc1ccc(CNC(=O)c2ccc(-c3cc(-c4nnc(C)o4)ccc3C)cc2)cc1,> 25 µM,> 25 µM,> 25 µM,> 25 µM,7.68 µM,> 25 µM,14.6 µM,> 25 µM,> 25 µM,> 25 µM,> 25 µM,> 25 µM,> 25 µM,> 25 µM,> 20.2 µM,> 25 µM,21 µM,> 25 µM,7.6 µM,> 25 µM
O=C(Nc1nc2ccc(F)cc2s1)c1cccnc1Nc1ccc(Cl)cc1Cl,1.82 µM,12.6 µM,3.22 µM,13.4 µM,2.02 µM,16 µM,2.07 µM,8.01 µM,2.92 µM,19.7 µM,2.05 µM,9.75 µM,2.67 µM,12.4 µM,2.53 µM,> 25.6 µM,3.34 µM,16.3 µM,1.93 µM,8.02 µM
Cc1ccc(-c2cc(C(Cl)Cl)on2)cc1,40.9 µM,> 100 µM,91.4 µM,> 100 µM,46.1 µM,> 100 µM,36.1 µM,> 100 µM,> 100 µM,> 100 µM,26.9 µM,> 100 µM,49.1 µM,> 100 µM,48.5 µM,> 100 µM,> 100 µM,> 100 µM,60 µM,> 100 µM
CCCC(=O)Nc1cn(COC)c(C(=O)N2C[C@H]3C[C@@]34C2=CC(=O)c2[nH]cc(C)c24)n1,0.555 µM,,2.56 µM,5 µM and 11.4 µM,39.1 µM,39 µM and > 100 µM,2.32 µM,50 µM and 12 µM,20.9 µM,43.1 µM and > 100 µM,12.4 µM,25.2 µM and > 100 µM,,15.9 µM and 28.7 µM,1.84 µM,8.62 µM and 14.7 µM,3.4 µM,50 µM and > 100 µM,5 µM,50 µM and 67.2 µM
Oc1cccc(-c2nc(N3CCOCC3)c3oc4ncccc4c3n2)c1,0.517 µM and 0.461 µM,> 100 µM,0.188 µM and 0.161 µM,> 100 µM,0.213 µM,0.82 µM,0.53 µM and 0.426 µM,> 100 µM,0.0576 µM and 0.0526 µM,2.94 µM and 0.409 µM,6.52 µM and 8.37 µM,> 100 µM,0.359 µM and 0.419 µM,> 100 µM,0.0654 µM and 0.0819 µM,0.666 µM and 4.67 µM,0.196 µM and 0.181 µM,> 100 µM and 19.9 µM,1.21 µM and 1.62 µM,4.08 µM and 4.6 µM
NC1(C(=O)O)CSSC1,13.2 µM,> 100 µM,7.63 µM,> 100 µM,4.49 µM,35 µM,4.53 µM,84.5 µM,3.91 µM,> 100 µM,3.84 µM,31.7 µM,3 µM,> 100 µM,3.41 µM,17.7 µM,7.6 µM,> 100 µM,2.35 µM,8.25 µM
COc1ccc(-c2nn3ncccc3c2-c2ccnc(Nc3cccc(C(F)(F)F)c3)n2)cc1,6.73 µM,> 25 µM,12.1 µM,> 25 µM,6.69 µM,> 25 µM,7.99 µM,> 25 µM,8.29 µM,> 25 µM,7.56 µM,> 25 µM,7.62 µM,> 25 µM,6.39 µM,> 21.7 µM,9.86 µM,> 25 µM,7.6 µM,> 25 µM
Cc1cc(S(N)(=O)=O)c(S/C(=N\NS(=O)(=O)c2ccccc2)c2ccc(Cl)c(Cl)c2)cc1Cl,86 µM,> 100 µM,54.2 µM,> 100 µM,48.1 µM,> 100 µM,38 µM,> 100 µM,29.9 µM,99.3 µM,,,29.5 µM,> 100 µM,89 µM,> 100 µM,33.8 µM,> 100 µM,36.4 µM,> 100 µM
COc1ccc(-c2nc(/C=N/Nc3cc(C)nc4ccc(Br)cc34)c(C)o2)cc1,0.732 µM,3.38 µM,1.75 µM,3.34 µM,1.93 µM,3.44 µM,1.84 µM,3.36 µM,2.02 µM,4.1 µM,1.62 µM,3.24 µM,1.93 µM,3.73 µM,1.8 µM,3.67 µM,,,1.9 µM,3.49 µM
CC(=O)Oc1ccc2c(c1)O/C(=C\c1ccc(O)cc1)C2=O,,> 100 µM,,> 100 µM,,> 100 µM,,> 100 µM,,> 100 µM,,,,> 100 µM,,> 100 µM,,> 100 µM,,> 100 µM
